Results taken from patent US9540366B2, “Ring-fused heterocyclic compound” (Kyowa Hakko Kirin Co., Ltd., priority 2012, dated 2017).

Columns and labels:
[1] = target: T1, human Cav3.2 T-type Ca2+ channel (Homo sapiens, UniProt O95180); assay: Inhibitory effect for intracellular calcium response via Cav3.2 T-type Ca2+ channels (FLIPR Calcium 3 Assay Kit); assay type: cell-based
T1 construct: expressed in transfected cells; host or cells: KJMGER8 cells (Namalwa cell-derived cell line)

[2] = tested on: morphine-induced pruritus mice; assay: Inhibitory effect for pruritus in morphine-induced pruritus mice; assay type: in vivo; details: oral dose of 30 mg/kg or less, given 30 minutes or 1 hour before intrathecal morphine; scratching counted for 30 minutes; male ddY mice
Protocol: Inhibitory Effect for Pruritus in Morphine-Induced Pruritus Mice
Morphine (1 nmol/5 μL, dissolved in physiological saline) or physiological saline was intrathecally administered between the fifth and sixth lumbar vertebrae of male ddY mice using a microsyringe fitted with a 30-gauge injection needle. Mice to which only morphine was administered were referred to as a control group, and mice to which only physiological saline was administered were referred to as a physiological saline-administered group.
The number of scratching behavior with the hind legs which began to be observed immediately after the morphine administration was measured for 30 minutes. Because mice show continuous scratching actions in each scratching behavior, a series of such actions was counted as a single scratching behavior.
Each test compound was administered 30 minutes or 1 hour before the morphine administration. The test compound was suspended in a 0.5% methylcellulose solution and was prepared plural administration solutions of different concentrations, and each of them was orally administered in a volume of 10 mL/kg.

T1 sequence (O95180 whole entry): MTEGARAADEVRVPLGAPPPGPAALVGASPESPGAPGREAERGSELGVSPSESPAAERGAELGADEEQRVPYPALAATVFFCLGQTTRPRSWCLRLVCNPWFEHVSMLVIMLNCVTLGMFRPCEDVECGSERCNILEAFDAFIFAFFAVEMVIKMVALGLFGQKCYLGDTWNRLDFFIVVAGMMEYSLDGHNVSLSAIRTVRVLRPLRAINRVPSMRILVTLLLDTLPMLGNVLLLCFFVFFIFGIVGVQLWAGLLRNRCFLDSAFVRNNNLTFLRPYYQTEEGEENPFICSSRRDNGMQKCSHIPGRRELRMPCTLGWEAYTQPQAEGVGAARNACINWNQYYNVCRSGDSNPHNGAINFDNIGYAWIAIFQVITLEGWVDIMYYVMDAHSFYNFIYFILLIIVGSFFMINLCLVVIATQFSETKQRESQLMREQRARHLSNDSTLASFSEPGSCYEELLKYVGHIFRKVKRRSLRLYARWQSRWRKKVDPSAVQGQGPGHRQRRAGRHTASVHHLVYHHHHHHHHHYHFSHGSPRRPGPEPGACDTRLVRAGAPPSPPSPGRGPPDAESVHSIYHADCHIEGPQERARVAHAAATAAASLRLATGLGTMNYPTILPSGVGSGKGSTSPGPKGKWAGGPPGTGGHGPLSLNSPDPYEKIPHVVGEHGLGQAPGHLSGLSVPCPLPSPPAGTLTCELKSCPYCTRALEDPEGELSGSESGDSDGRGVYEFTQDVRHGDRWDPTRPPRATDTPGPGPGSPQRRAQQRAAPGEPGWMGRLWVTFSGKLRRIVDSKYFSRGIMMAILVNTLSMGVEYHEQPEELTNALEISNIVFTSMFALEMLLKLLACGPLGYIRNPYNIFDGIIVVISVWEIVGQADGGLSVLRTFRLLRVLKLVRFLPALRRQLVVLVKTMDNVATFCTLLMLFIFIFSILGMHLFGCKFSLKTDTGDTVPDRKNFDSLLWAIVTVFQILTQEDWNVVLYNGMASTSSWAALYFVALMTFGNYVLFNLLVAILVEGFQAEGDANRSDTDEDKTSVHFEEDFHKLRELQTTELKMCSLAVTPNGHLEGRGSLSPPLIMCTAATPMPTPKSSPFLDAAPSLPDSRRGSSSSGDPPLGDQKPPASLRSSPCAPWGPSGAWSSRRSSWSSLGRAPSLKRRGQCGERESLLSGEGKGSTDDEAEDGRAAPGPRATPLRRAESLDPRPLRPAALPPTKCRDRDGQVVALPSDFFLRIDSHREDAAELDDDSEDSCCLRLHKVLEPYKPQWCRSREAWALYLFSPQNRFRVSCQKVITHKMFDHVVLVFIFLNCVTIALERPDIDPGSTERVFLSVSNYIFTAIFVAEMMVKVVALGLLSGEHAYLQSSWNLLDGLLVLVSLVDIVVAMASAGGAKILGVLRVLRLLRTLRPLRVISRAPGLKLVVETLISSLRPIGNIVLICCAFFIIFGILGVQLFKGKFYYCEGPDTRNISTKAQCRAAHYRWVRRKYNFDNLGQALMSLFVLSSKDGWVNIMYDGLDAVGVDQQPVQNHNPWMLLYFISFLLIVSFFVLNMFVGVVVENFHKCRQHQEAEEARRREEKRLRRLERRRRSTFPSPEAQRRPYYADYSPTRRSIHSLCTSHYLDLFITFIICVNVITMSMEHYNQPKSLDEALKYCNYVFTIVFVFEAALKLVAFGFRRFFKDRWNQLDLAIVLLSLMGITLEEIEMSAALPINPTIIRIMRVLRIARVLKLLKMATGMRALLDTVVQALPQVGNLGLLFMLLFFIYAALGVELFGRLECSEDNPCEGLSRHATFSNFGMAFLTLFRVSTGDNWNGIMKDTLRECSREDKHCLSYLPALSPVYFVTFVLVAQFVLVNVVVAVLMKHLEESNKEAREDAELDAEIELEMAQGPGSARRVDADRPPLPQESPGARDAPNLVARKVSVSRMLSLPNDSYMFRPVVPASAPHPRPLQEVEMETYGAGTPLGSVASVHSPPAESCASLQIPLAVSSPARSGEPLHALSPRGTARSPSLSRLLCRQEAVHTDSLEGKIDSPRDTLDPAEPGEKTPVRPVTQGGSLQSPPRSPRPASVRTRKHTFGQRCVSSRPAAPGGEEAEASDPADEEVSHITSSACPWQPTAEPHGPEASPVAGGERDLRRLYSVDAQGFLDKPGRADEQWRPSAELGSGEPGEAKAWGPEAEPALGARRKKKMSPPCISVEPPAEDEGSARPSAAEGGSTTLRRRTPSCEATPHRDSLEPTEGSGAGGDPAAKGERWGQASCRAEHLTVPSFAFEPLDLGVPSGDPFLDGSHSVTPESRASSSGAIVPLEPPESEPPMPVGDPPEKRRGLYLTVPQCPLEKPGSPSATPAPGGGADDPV

N#Cc1cc(C(=O)NC2CCOCC2)cc2nc(C(F)(F)F)c(CC3CCC(F)(F)CC3)n12 [Compound 40]
IC50 [1]: ≤ 100 nM | inhibition of the increase of the scratching behavior in morphine-induced pruritus mice [2]: inhibited the increase of the scratching behavior
